pKi: −log10 of the molar value.
Target: T1, H3R membranes (H3R8-expressing HEK293 cell line) (Homo sapiens, UniProt Q9Y5N1)
T1 construct: expressed in transfected cells; membranes
Test: [35S] GTPγ[S] binding assay, antagonist activity in the presence of agonist R(-)alpha methylhistamine
Type: biochemical
Settings: inhibition of [35S]GTPγS binding to H3R membranes in presence of agonist
Description: Membranes isolated as described in (Preparation of Histamine Receptor Subtype Membranes) were used in a [35S]GTPχS functional assay. Binding of [35S]GTPχS to membranes indicates agonist activity. Compounds of the invention of Formula I or Formula II were tested for their ability to inhibit binding in the presence of agonists. Alternately, the same transfected cell lines were used for a cAMP assay wherein H3R agonists inhibited forskolin-activated synthesis of cAMP. Compounds of Formula I or Formula II were tested for their ability to permit forskolin-stimulated cAMP synthesis in the presence of agonist.
Antagonist activity of selected compounds was tested for inhibition of [35S] GTP γ [S] binding to H3R membranes in the presence of agonists. Assays were run at room temperature in 20 mM HEPES, 100 mM NaCl, 5 mM MgCl2 and 10 uM GDP at pH 7.4 in a final volume of 200 ul in 96-well Costar plates. Membranes isolated from H3R8-expressing HEK293 cell line (20 ug/well) and GDP were added to each well in a volume of 50 μl assay buffer. Antagonist was then added to the wells in a volume of 50 μl assay buffer and incubated for 15 minutes at room temperature. […] Plates were counted in Wallac Trilux 1450 Microbeta scintillation counter for 1 minute. […]

T1 sequence (Q9Y5N1 whole entry): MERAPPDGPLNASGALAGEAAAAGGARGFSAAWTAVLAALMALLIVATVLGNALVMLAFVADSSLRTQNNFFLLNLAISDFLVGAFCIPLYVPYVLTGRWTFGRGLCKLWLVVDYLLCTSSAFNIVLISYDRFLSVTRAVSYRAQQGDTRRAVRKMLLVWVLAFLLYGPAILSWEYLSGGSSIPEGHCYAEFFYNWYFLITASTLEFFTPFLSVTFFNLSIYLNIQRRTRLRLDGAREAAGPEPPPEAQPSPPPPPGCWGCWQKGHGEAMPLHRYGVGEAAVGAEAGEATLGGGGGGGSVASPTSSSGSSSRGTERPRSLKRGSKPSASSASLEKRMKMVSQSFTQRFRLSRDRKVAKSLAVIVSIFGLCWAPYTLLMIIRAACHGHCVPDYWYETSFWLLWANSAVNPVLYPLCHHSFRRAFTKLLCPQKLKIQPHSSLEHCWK

pKi: 7.31
SMILES: O=C(c1ccc(-c2ccccn2)cc1)N1CCC[C@H]1CN1CCCC1
